The results in this text go back to PubChem BioAssay (NCI).

Some test systems named below: A549 NSCLC; CAKI-1 renal; KM12 colon; OVCAR-3 ovarian; SF-268 CNS; SNB-19 CNS; SNB-78 CNS; XF 498 CNS; ACHN renal; MDA-MB-231 breast; PC-3 prostate.
What all share (experiment): NCI anticancer screen, dose series, 48 h

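In this assay, cells in 96-well plates receive the compound at five concentrations for 48 hours. Endpoints are linearly interpolated between the surrounding concentrations. Definition used: TGI = concentration required for complete inhibition of growth.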

As for `COc1ccc(CC(N)=O)cc1OC`, the TGI in the experiment with A549 NSCLC was greater than 1250 µM; with CAKI-1 renal, greater than 575 µM; with KM12 colon, greater than 1250 µM; in the experiment with OVCAR-3 ovarian, greater than 1250 µM; with SF-268 CNS it was greater than 1250 µM; in the experiment on SNB-19 CNS, greater than 1250 µM. Also, the TGI in the experiment on SNB-78 CNS and in the experiment on XF 498 CNS was greater than 1250 µM in each case.

`O[C@H]1[C@H](O)[C@@H](O)CN2CC[C@H](O)[C@H]12`: the TGI in the experiment on A549 NSCLC, in the experiment on CAKI-1 renal, with KM12 colon, in the experiment on OVCAR-3 ovarian, with SF-268 CNS and in the experiment on SNB-19 CNS was greater than 100 µM throughout. Moreover, the TGI in the experiment on SNB-78 CNS and in the experiment with XF 498 CNS was greater than 100 µM throughout.

For `CCOC(=O)/C=C1/C(CCCOCc2ccccc2)C2CCCC23CC2(CCN13)OCCO2` (centres undefined), the TGI was 63.9 µM in the experiment with A549 NSCLC; 83.9 µM with ACHN renal; 58 µM in the experiment on KM12 colon; 49.4 µM with OVCAR-3 ovarian; greater than 100 µM in the experiment with SF-268 CNS; greater than 100 µM in the experiment on SNB-19 CNS. The values for the TGI in the experiment with SNB-78 CNS and in the experiment with XF 498 CNS were 85.8 µM and 26.8 µM, respectively.

Consider `Nc1c(S(=O)(=O)c2ccc(Cl)cc2)c2nc3ccccc3nc2n2ccnc12`, for which the TGI with A549 NSCLC, with ACHN renal, in the experiment on KM12 colon, with OVCAR-3 ovarian, in the experiment with SF-268 CNS and with SNB-19 CNS was greater than 100 µM each time. In addition, the TGI in the experiment with SNB-78 CNS and in the experiment with XF 498 CNS was greater than 100 µM in each case.

As for `O=C1NC(O)CCN1C1OC(CO)C(O)C1O` (centres undefined), the TGI with A549 NSCLC, with CAKI-1 renal, with KM12 colon, in the experiment with OVCAR-3 ovarian, with SF-268 CNS and in the experiment on SNB-19 CNS was greater than 250 µM in each case. Besides, the TGI with SNB-78 CNS and in the experiment on XF 498 CNS was greater than 250 µM in each case.

For the compound `CN1Cc2c(nc(-c3ccccc3)c[n+]2[O-])N(C)C1`, the TGI with A549 NSCLC, in the experiment with ACHN renal, in the experiment with CAKI-1 renal, in the experiment with KM12 colon, with OVCAR-3 ovarian and in the experiment with SF-268 CNS was greater than 100 µM in each case. The TGI in the experiment with SNB-19 CNS, in the experiment with SNB-78 CNS and in the experiment on XF 498 CNS was greater than 100 µM each time.

Take `N#CC(c1ccccc1)N(CCOCCOCCN(C(=O)c1ccccc1)C(C#N)c1ccccc1)C(=O)c1ccccc1` (centres undefined): the TGI in the experiment with A549 NSCLC, with ACHN renal, in the experiment on CAKI-1 renal, in the experiment on KM12 colon, with MDA-MB-231 breast and with OVCAR-3 ovarian was greater than 100 µM each time. In addition, the TGI in the experiment on PC-3 prostate, in the experiment on SF-268 CNS and in the experiment on SNB-19 CNS was greater than 100 µM each time.

Regarding `CC(C)(C)OC(=O)NC(CSSCC(NC(=O)OC(C)(C)C)C(=O)O)C(=O)O` (centres undefined), the TGI in the experiment with A549 NSCLC, in the experiment with ACHN renal, with CAKI-1 renal, in the experiment on KM12 colon, in the experiment with MDA-MB-231 breast and in the experiment on OVCAR-3 ovarian was greater than 100 µM throughout. The TGI in the experiment on PC-3 prostate, in the experiment with SF-268 CNS and with SNB-19 CNS was greater than 100 µM each time.

Turning to `C=CCn1c(=O)ccn(/C(=C/C(=O)OCC)C(=O)OCC)c1=O`, the TGI in the experiment on A549 NSCLC is 32.3 µM; with ACHN renal it was 13.9 µM; with CAKI-1 renal, 4.19 µM; in the experiment with KM12 colon, 32.9 µM; in the experiment on MDA-MB-231 breast, 26 µM; with OVCAR-3 ovarian it was 18.2 µM. Besides, the TGI in the experiment with PC-3 prostate is 27.9 µM; with SF-268 CNS, 42.1 µM; with SNB-19 CNS it was greater than 58.3 µM.

On to `CCOC(=O)C(NC(=O)CC)(N1CCN(c2cc3c(cc2F)c(=O)c(C(=O)O)cn3C2CC2)CC1)C(F)(F)F` (centres undefined), for which the TGI in the experiment with A549 NSCLC, with ACHN renal, in the experiment on CAKI-1 renal, in the experiment on KM12 colon, with MDA-MB-231 breast and with OVCAR-3 ovarian was greater than 100 µM each time. The TGI with PC-3 prostate, with SF-268 CNS and in the experiment on SNB-19 CNS was greater than 100 µM each time.

Regarding `Cn1c2ccccc2c2c(=S)c3ccccc3ccc21`, the TGI in the experiment on A549 NSCLC, in the experiment on ACHN renal, in the experiment with CAKI-1 renal, in the experiment on KM12 colon, with MDA-MB-231 breast and with OVCAR-3 ovarian was greater than 100 µM in each case. In addition, the TGI in the experiment with PC-3 prostate, in the experiment with SF-268 CNS and in the experiment with SNB-19 CNS was greater than 100 µM throughout.

With `C=C(CN(C)C)C(=O)c1ccc(C(=O)C(=C)CN(C)C)cc1`, the TGI with A549 NSCLC, in the experiment with ACHN renal, in the experiment with CAKI-1 renal, in the experiment with KM12 colon, in the experiment on OVCAR-3 ovarian and with SF-268 CNS was greater than 100 µM each time. Moreover, the TGI in the experiment on SNB-19 CNS and with XF 498 CNS was greater than 100 µM throughout.

With `COc1cc(C2c3cc4c(cc3[C@@H](Nc3ccccc3)C3COC(=O)[C@H]23)OCO4)cc(OC)c1O` (some centres undefined), the TGI was determined as 1.82 µM with A549 NSCLC; 1.68 µM in the experiment on CAKI-1 renal; 4.69 µM with KM12 colon; 7.34 µM in the experiment on OVCAR-3 ovarian; 13.2 µM with SF-268 CNS; 11.3 µM in the experiment with SNB-19 CNS. The TGI was greater than 91 µM with SNB-78 CNS and 7.84 µM with XF 498 CNS.

`CCOC(=O)c1c2cccccc-2nc1Nc1cccc2c(C)ccnc12`: the TGI in the experiment on A549 NSCLC, in the experiment with ACHN renal, in the experiment on CAKI-1 renal, in the experiment on KM12 colon, in the experiment on MDA-MB-231 breast and in the experiment with OVCAR-3 ovarian was greater than 10 µM each time. For the same compound, the TGI in the experiment with PC-3 prostate, with SF-268 CNS and in the experiment with SNB-19 CNS was greater than 10 µM throughout.
